Test results as given in PMC6078987, “Molecular insights into antibiotic resistance - how a binding protein traps albicidin” (Nature Communications, 2018).
Converted amounts (≈) assume the structure as drawn.

Experiments:
[1] = test system: Pseudomonas aeruginosa DSM 117; set-up: method as in PMID 17074789, PMID 25504839; settings: cited from earlier work
Enterobacter cloacae = experiment: MIC assay, clinical isolates; assay type: cell-based
Protocol: (§1) The MIC assay was performed by Antiinfectives Intelligence GmbH (Rheinbach, Germany) using internationally standardized protocols and employing clinical isolates of K. oxytoca, K. pneumoniae, R. ornithologica, P. aeruginosa, A. baumannii and E. cloacae.

Acinetobacter baumanii = experiment: MIC assay, clinical isolates; assay type: cell-based; settings: Acinetobacter baumannii
Protocol: as §1

K. oxytoca = experiment: MIC assay, clinical isolates; assay type: cell-based; settings: Klebsiella oxytoca; four K. oxytoca strains
Protocol: as §1

AlbAS = target: T1, AlbAS (Klebsiella oxytoca, UniProt Q8KRS7); experiment: 1H-15N HSQC NMR binding assay; settings: 15N-labeled AlbAS, 1.5-fold excess of ligand
T1 sequence (Q8KRS7 1-221): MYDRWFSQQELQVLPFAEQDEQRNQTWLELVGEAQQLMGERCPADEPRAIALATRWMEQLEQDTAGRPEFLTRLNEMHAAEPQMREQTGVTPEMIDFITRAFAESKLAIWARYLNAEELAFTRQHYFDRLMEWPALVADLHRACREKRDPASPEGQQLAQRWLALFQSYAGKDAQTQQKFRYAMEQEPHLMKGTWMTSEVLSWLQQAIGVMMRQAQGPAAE
Protocol: For binding studies with albicidin and its derivatives, each ligand was dissolved in 100% d6-DMSO and added to ^15N-labeled AlbAS or ^2H, ^15N-labeled AlbAL in 50 mM sodium hydrogen phosphate (pH 6.8), 150 mM NaCl buffer (usually 0.24 mM AlbAS or AlbAL in 85% buffer, 5% d6-DMSO, and 10% D2O) yielding a 1.5-fold excess of the ligand. After incubation for 20 min at room temperature in the dark, the sample was centrifuged at 20 000 × g for 3 min and the supernatant was transferred to a 5 mm NMR tube. The AlbAS blank sample (Supplementary Figure 14) was measured in 100% buffer without addition of ligands and DMSO. Spectra were recorded on a Bruker Avance III 700 MHz NMR spectrometer (Bruker BioSpin, Rheinstetten, Germany) with a TXI probe head. Standard Bruker pulse sequences were used. 2D ^1H-^15N HSQC spectra were recorded at 298 K with acquisition times of 90 and 22 ms for the ^1H and ^15N dimension, respectively. The experiments were accumulated with ≥16 scans depending on protein sample concentration. 2D ^1H-^15N TROSY spectra were accumulated with 256 scans and acquisition times of 90 and 22 ms for the ^1H and ^15N dimension, respectively. Several AlbAS–albicidin samples were measured with the same result and a representative spectrum is given for the figures in the main manuscript and the SI. NMR experiments with AlbAS and albicidin analogs were conducted once with accumulation of ≥16 scans depending on protein concentration. For alignment of HSQC and TROSY spectra, the TROSY spectrum was corrected by 1/2 ^1JNH in both dimensions. […]

Staphylococcus aureus = test system: Staphylococcus aureus; set-up: method as in PMID 17074789, PMID 25504839; settings: cited from earlier work
DNA gyrase = target: DNA gyrase; set-up: method as in PMID 17074789; settings: read-out: half maximal inhibitory concentration (IC50); cited from earlier work

## COc1c(NC(=O)c2ccc(NC(=O)c3ccc(NC(=O)[C@H](CC#N)NC(=O)c4ccc(NC(=O)/C(C)=C/c5ccc(O)cc5)cc4)cc3)c(OC)c2O)ccc(C(=O)O)c1O [albicidin]
[1]
  MIC: 1.0 µg/mL (≈ 1.19 µM)
Enterobacter cloacae
  MIC: ≥ 64 µg/mL
Acinetobacter baumanii
  MIC: ≥ 64 µg/mL
K. oxytoca
  MIC: ≥ 64 µg/mL
AlbAS
  binding to AlbAS by HSQC signal pattern (in words): strong ligand binding in the nM–pM range
Staphylococcus aureus
  MIC: 4.0 µg/mL (≈ 4.75 µM)
DNA gyrase
  IC50: 40 nM
